Where “and” joins values, the source holds several entries; their conditions need not be identical. Equal values may be shown once. Calls of active or inactive are those of the source.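 Rule for the calls: active = valid fitted curve with falling viability signal and AC50 at most twice the top tested concentration; inconclusive = flat curve with 30 to 70% signal loss, or poor fit; inactive = the rest, including opposite-direction effects.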

The test system of one assay is HepG2 viability, CellTiter-Glo ATP luminescence, 72 h. The experiment in a line: HepG2 cell cytotoxicity, dose response, cytotoxicity control, ATP luminescence, dry powder, Set2, 50 µM top (AID 743136).
Settings: not given
Consider `Cc1c(C(=O)O)sc2nc(/C=C/c3cccc(OC(F)(F)F)c3)[nH]c(=O)c12`, for which the AC50 was > 100 µM (inactive).

As for `Cc1c(C(=O)O)sc2nc(/C=C/c3cccnc3N)[nH]c(=O)c12`, the AC50 is > 24 µM (inactive).

Test system in a further assay: not listed separately
The assay is described as above. To be noted: HepG2 viability, CellTiter-Glo ATP luminescence, 72 h; at 1.2 µM (top of the series).
As to `Cc1c(C(=O)O)sc2nc(/C=C/c3ccc(O)cn3)[nH]c(=O)c12`, the activity change, negative = cytotoxicity was -0.612% (inactive).

Still in this assay, the particulars now being: HepG2 viability, CellTiter-Glo ATP luminescence, 72 h; at 12 µM (top of the series).
For the molecule `Cc1c(C(=O)O)sc2nc(/C=C/c3ccc4[nH]ccc4n3)[nH]c(=O)c12`, the activity change, negative = cytotoxicity is 2.05% (inactive).

Staying with this assay, now noted: HepG2 viability, CellTiter-Glo ATP luminescence, 72 h; at 46 µM (top of the series).
Turning to `Cc1c(C(=O)O)sc2nc(/C=C/c3cccc(O)c3)[nH]c(=O)c12`, the activity change, negative = cytotoxicity was 1.28% (inactive).

Still in this assay, the particulars now being: HepG2 viability, CellTiter-Glo ATP luminescence, 72 h; at 50 µM (top of the series).
As for `Cc1c(C(=O)O)sc2nc(/C=C/c3ccccc3O)[nH]c(=O)c12`, the activity change, negative = cytotoxicity is -7.61% (inactive).

`Cc1c(C(=O)O)sc2nc(/C=C/c3cccc(C(N)=O)c3)[nH]c(=O)c12`: the activity change, negative = cytotoxicity was -16.7% (inactive).

Turning to `Cc1c(C(=O)O)sc2nc(CCc3cccc(O)c3)[nH]c(=O)c12`, the activity change, negative = cytotoxicity is -14.1% (inactive).

Turning to `Cc1c(C(=O)O)sc2nc(/C=C/c3cc4ccccc4cn3)[nH]c(=O)c12`, the activity change, negative = cytotoxicity is -5.12% (inactive).

Consider `Cc1c(C(=O)O)sc2nc(/C=C/C3CC3)[nH]c(=O)c12`, for which the activity change, negative = cytotoxicity was -1.5% (inactive).

As to `Cc1c(C(=O)O)sc2nc(/C=C/c3ccnc4ccccc34)[nH]c(=O)c12`, the activity change, negative = cytotoxicity is -5.63% (inactive).

In the case of `Cc1c(C(=O)O)sc2nc(/C=C/c3cccc(N4CCOCC4)n3)[nH]c(=O)c12`, the activity change, negative = cytotoxicity is -4.25% (inactive).

As to `Cc1c(C(=O)O)sc2nc(/C=C/c3cccc(F)c3)[nH]c(=O)c12`, the activity change, negative = cytotoxicity is -10.3% (inactive).

Turning to `Cc1c(C(=O)O)sc2nc(/C=C/c3cccc(N4CCNCC4)c3)[nH]c(=O)c12`, the activity change, negative = cytotoxicity was -21% (inactive).

For `Cc1c(C(=O)O)sc2nc(/C=C/c3cccc(N)c3)[nH]c(=O)c12`, the activity change, negative = cytotoxicity is -6.41% (inactive).

Regarding `Cc1c(C(=O)O)sc2nc(/C=C/c3ccccc3)[nH]c(=O)c12`, the activity change, negative = cytotoxicity was -17.2% (inactive).

On to `Cc1c(C(=O)O)sc2nc(/C=C/c3ccccn3)[nH]c(=O)c12`, for which the activity change, negative = cytotoxicity was -16.2% (inactive).

For the molecule `Cc1c(C(=O)O)sc2nc(/C=C/c3ccc4ccccc4c3)[nH]c(=O)c12`, the activity change, negative = cytotoxicity is -8.19% (inactive).

Regarding `Cc1c(C(=O)O)sc2nc(/C=C/c3cccnc3)[nH]c(=O)c12`, the activity change, negative = cytotoxicity is -15.4% (inactive).

On to `Cc1c(C(=O)O)sc2nc(/C=C/C=C/c3ccccc3)[nH]c(=O)c12`, for which the activity change, negative = cytotoxicity is 20.1% (inactive).

As for `Cc1c(C(=O)O)sc2nc(/C=C/c3cnc4ccccc4c3)[nH]c(=O)c12`, the activity change, negative = cytotoxicity was -18.5% (inactive).

With `Cc1c(C(=O)O)sc2nc(/C=C/c3cccc([N+](=O)[O-])c3)[nH]c(=O)c12`, the activity change, negative = cytotoxicity is -30.8% (inactive).

As for `Cc1c(C(=O)O)sc2nc(/C=C/c3ccc4[nH]ccc4c3)[nH]c(=O)c12`, the activity change, negative = cytotoxicity was 1.56% (inactive).

For the molecule `COc1cccc(/C=C/c2nc3sc(C(=O)O)c(C)c3c(=O)[nH]2)c1`, the activity change, negative = cytotoxicity is -15.1% (inactive).

As for `Cc1c(C(=O)O)sc2nc(/C=C/c3cccc(O)c3)[nH]c(=O)c12`, the activity change, negative = cytotoxicity is -10.4% (inactive) and -7.42% (inactive).

Consider `Cc1c(C(=O)O)sc2nc(/C=C/c3ccc4cc[nH]c4c3)[nH]c(=O)c12`, for which the activity change, negative = cytotoxicity is -21% (inactive).

As for `Cc1c(C(=O)O)sc2nc(/C=C/c3cccc(C(=O)O)c3)[nH]c(=O)c12`, the activity change, negative = cytotoxicity is -5.9% (inactive).

In the case of `Cc1c(C(=O)O)sc2nc(/C=C/c3ccncc3)[nH]c(=O)c12`, the activity change, negative = cytotoxicity was -2.2% (inactive).

Take `Cc1c(C(=O)O)sc2nc(/C=C/c3cccc(=O)[nH]3)[nH]c(=O)c12`: the activity change, negative = cytotoxicity is -1.32% (inactive).

`Cc1c(C(=O)O)sc2nc(/C=C/c3cccc(C(F)(F)F)c3)[nH]c(=O)c12`: the activity change, negative = cytotoxicity is -10.9% (inactive).

Turning to `Cc1c(C(=O)O)sc2nc(/C=C/c3ccc(N)nc3)[nH]c(=O)c12`, the activity change, negative = cytotoxicity was -9.16% (inactive).
